Results from US20080305186A1, “Method and Composition for the Treatment of Cardiac Hypertrophy” (BOARD OF REGENTS, THE UNIVERSITY OF TEXAS SYSTEM, priority 2007, published 2008).

Tested on: cardiac gene expression
Test: Microarray analysis of cardiac gene expression (GeneChip Mouse Genome 430 2.0)
Assay type: in vivo, mice
Method: Microarray Sample Preparation and Analysis. Animal hearts were rapidly removed, and the atria and right ventricles were cut and immediately plunged into TRIzol Reagent (Life Technologies). Total RNA was isolated following the manufacturer's instructions, purified by phenol-chloroform extraction and then ethanol precipitation, and 20 μg further processed for microarray analysis. Briefly, cDNA synthesis, in vitro transcription, and labeling and fragmentation to produce the oligonucleotide probes were performed as instructed by the GeneChip manufacturer (Affymetrix). The probes were first hybridized to a test array (Affymetrix) and then to the GeneChip Mouse Genome 430 2.0 Array, using the GeneChip Hybridization Oven 640. The chips were washed in a GeneChip Fluidics Station 450 (Affymetrix), and the results were visualized with a GeneChip G7 scanner (Affymetrix). RMA normalization, pairwise comparisons, Student's t test and Benjamini and Hochberg correction were subsequently performed using GeneSifter (VizX Labs, Seattle, Wash.) and Spotfire DecisionSite 8.3 (Spotfire, Inc., Somerville, Mass.).
Effects on Gene Expression Profile. […] One mouse heart was used for each array, and was performed in triplicate, generating a total of 12 arrays. GeneSifter was used to perform RMA normalization, pairwise comparisons of averaged signal intensity values, and Student's t-test with Benjamini and Hochberg correction, and Spotfire was used to perform pairwise comparisons. […] Additionally, genes that were altered between any two N or cardiac hypertrophy samples were removed, as these alterations most likely represented normal variations between mice.

[1] = mouse heart, vs isoproterenol only (CH), CH vs normal −1.7
[2] = mouse heart, vs isoproterenol only (CH), CH vs normal −1.8
[3] = mouse heart, vs isoproterenol only (CH), CH vs normal −1.9
[4] = mouse heart, vs isoproterenol only (CH), CH vs normal −2.0
[5] = mouse heart, vs isoproterenol only (CH), CH vs normal −2.1
[6] = mouse heart, vs isoproterenol only (CH), CH vs normal −2.4
[7] = mouse heart, vs isoproterenol only (CH), CH vs normal −2.5
[8] = mouse heart, vs isoproterenol only (CH), CH vs normal −2.6
[9] = mouse heart, vs isoproterenol only (CH), CH vs normal −2.7
[10] = mouse heart, vs isoproterenol only (CH), CH vs normal −2.8
[11] = mouse heart, vs isoproterenol only (CH), CH vs normal −2.9
[12] = mouse heart, vs isoproterenol only (CH), CH vs normal −3.0
[13] = mouse heart, vs isoproterenol only (CH), CH vs normal −3.2
[14] = mouse heart, vs isoproterenol only (CH), CH vs normal −3.3
[15] = mouse heart, vs isoproterenol only (CH), CH vs normal −3.9

Structure (SMILES): C[C@H]1c2cccc(O)c2C(=O)C2=C(O)[C@]3(O)C(=O)C(C(N)=O)=C(O)[C@@H](N(C)C)[C@@H]3[C@@H](O)[C@@H]21 [doxycycline]
- FC EphrinB3 (Efnb3), BQ175608 [1]: 1.6 fold
- FC Nuclear factor IB (Nfib), BB092799 [1]: 4.0 fold
- FC Preimplantation protein 4 (Prei4), BB550273 [1]: 3.6 fold
- FC Triple futional domain (PTPRF interacting) (Trio), BB794936 [1]: 3.0 fold
- FC cDNA, AK020162 [1]: 1.7 fold
- FC ATPase, Na+/K+ transporting, alpha 1 polypeptide (Atp1a1), BC025618 (mouse heart, vs isoproterenol only (CH), CH vs normal −1.7, first BC025618 line): 2.4 fold
- FC EST, BB126796 [2]: 6.5 fold
- FC EST, BB451134 [2]: 7.5 fold
- FC Metastasis suppressor 1 (Mtss1), BB326749 [2]: 2.0 fold
- FC Tetratricopeptide repeat domain (Ttc3), BB833716 [2]: 3.0 fold
- FC EST, BM941198 [3]: 3.2 fold
- FC Jumonji, AT rich interactive domain 1A (Rbp2 like) (Jarid1a), BB376407 [3]: 2.6 fold
- FC cDNA, BB006809 [3]: 2.1 fold
- FC Guanine nucleotide binding protein, alpha 12 (Gna12), NM_010302 [4]: 3.0 fold
- FC Zi finger and BTB domain containing 20 (Zbtb20), BB175650 [4]: 2.3 fold
- FC cDNA, BC002200 [4]: 4.8 fold
- FC ATPase, Na+/K+ transporting, alpha 1 polypeptide (Atp1a1), BC025618 (mouse heart, vs isoproterenol only (CH), CH vs normal −2.0, second BC025618 line): 2.7 fold
- FC Adenylate kinase 4 (Ak4), NM_009647 [5]: 2.2 fold
- FC Beta-tubulin gene M-beta-2 (Tubb2a), M28739 [5]: 1.7 fold
- FC C1q and tumor necrosis factor related protein 4 (C1qtnf4), NM_026161 [5]: 1.5 fold
- FC Cold inducible RNA binding protein (Cirbp), NM_007705 [5]: 1.7 fold
- FC Coronin, actin binding protein 1C (Coro1c), NM_011779 [5]: 2.1 fold
- FC Adrenergic receptor, alpha 1b (Adra1b), NM_007416 (mouse heart, vs isoproterenol only (CH), CH vs normal −2.3): 1.8 fold
- FC CXXC finger 5 (Cxxc5), AK015150 [6]: 2.1 fold
- FC DNA segment, Chr 9, ERATO Doi 256, expressed, BG066667 [6]: 3.3 fold
- FC Insulin degrading enzyme (Ide), AK014703 [6]: 2.1 fold
- FC Sno, strawbeny notch homolog 1 (Sno1), BE947961 [6]: 3.0 fold
- FC cDNA, BB748887 [6]: 3.9 fold
- FC B-cell translocation gene 2, anti-proliferative (Btg2), BG965405 [7]: 2.2 fold
- FC cDNA, BC026793 [7]: 2.5 fold
- FC Cbp/p300-interacting transactivator, with Glu/Asp-rich carboxy-terminal domain, 4 (Cited4), BC025116 [8]: 2.0 fold
- FC Desmoglein 2 (Dsg2), AB072269 [8]: 3.0 fold
- FC Heat shock protein, 84 kDa 1 (Hsp90ab1), BI154147 [8]: 8.7 fold
- FC Myocyte enhaer factor 2C (Mef2c), AI595932 [8]: 4.5 fold
- FC Restin-like 2 (Rsnl2), AK018895 [8]: 3.8 fold
- FC Jumonji domain containing 3 (Jmjd3), AW763746 [9]: 5.0 fold
- FC cDNA (similar to integrin beta 1 binding protein 3), AK009897 [9]: 4.0 fold
- FC ADP-ribosylation factor 2 (Arf2), AV023312 [10]: 2.5 fold
- FC Karyopherin (importin) beta 1 (Kpnb1), AW544889 [10]: 3.6 fold
- FC PPAR gamma coactivator-1beta protein (Ppargc1b), NM_133249 [11]: 4.4 fold
- FC SET and MYND domain containing 1 (Smyd1), NM_009762 [11]: 2.7 fold
- FC cDNA, AK013448 [11]: 2.6 fold
- FC Dual specificity phosphatase 8 (Dusp8), NM_008748 [12]: 2.8 fold
- FC GATA binding protein 4 (Gata4), NM_008092 [12]: 2.7 fold
- FC ATP synthase, H+ transporting, mitochondrial F1 complex, alpha subunit, isoform 1 (Atp5a1), C78762 (mouse heart, vs isoproterenol only (CH), CH vs normal −3.1): 1.7 fold
- FC Actin, beta, cytoplasmic (Actb), AW537707 [13]: 4.9 fold
- FC Methionine sulfoxide reductase B3 (Msrb3), BB277041 [13]: 7.2 fold
- FC Cyclin D1 (Ccnd1), BB538325 [14]: 2.7 fold
- FC Thymoma viral proto-oogene 1 (Akt1), M94335 [14]: 2.1 fold
- FC cDNA, BB283973 [14]: 4.1 fold
- FC cDNA, BB534971 (mouse heart, vs isoproterenol only (CH), CH vs normal −3.5): 2.9 fold
- FC cDNA, BB026304 (mouse heart, vs isoproterenol only (CH), CH vs normal −3.8): 4.1 fold
- FC Connexin 43 (alpha-1 gap jution) (Gja1), M63801 [15]: 3.6 fold
- FC Kinesin-like protein (Kif1b), D17577 [15]: 4.8 fold
- FC Kv channel-interacting protein 2a (Kcnip2), AF439339 (mouse heart, vs isoproterenol only (CH), CH vs normal −4.4): 3.7 fold
- FC Potassium voltage-gated channel, Isk-related subfamily, member 1 (Kcne1), NM_008424 (mouse heart, vs isoproterenol only (CH), CH vs normal −4.6): 1.5 fold
- FC Tumor rejection antigen gp96 (Tra1); heat shock protein 90 kDa beta (Grp94), member 1 (Hsp90b1), BE995678 (mouse heart, vs isoproterenol only (CH), CH vs normal −9.4): 8.0 fold
- FC Cadherin 13 (Cdh13), AK016527 (mouse heart, vs isoproterenol only (CH), CH vs normal −10.0): 9.8 fold
- FC cDNA (D site albumin promoter binding protein, Dbp), BB550183 (mouse heart, vs isoproterenol only (CH), CH vs normal −11.5): 12.0 fold
- number of the 472 cardiac hypertrophy-specific Combo-altered genes also altered by the drug alone (statistical parameters lifted (average fold-changes irrespective of statistical measures)): 453
